Columns and labels:
Assay in all cases: relative viability (nuclei count vs DMSO), 5 days (fraction); higher = more cells survive
NCI-H520 = system: NCI-H520
In short: (§1)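 Relative viability was taken as the ratio of nuclei in treated wells to nuclei in vehicle wells. Lung cancer cell lines in 1536-well plates received compounds by pin tool one day after seeding, either one drug alone or a fixed anchor-drug dose plus five library-drug doses (not always all listed) in √10 steps. Nuclei were counted on 4× images after 5 days of treatment, and values are medians of duplicate plates.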

NCI-H661 = system: NCI-H661
In short: as §1

NCI-H1651 = system: NCI-H1651
In short: as §1

NCI-H1792 = system: NCI-H1792
In short: as §1

NCI-H441 = system: NCI-H441
In short: as §1

SW 900 = system: SW 900
In short: as §1

NCI-H3122 = system: NCI-H3122
In short: as §1

SK-MES-1 = system: SK-MES-1
In short: as §1

LCLC-103H = system: LCLC-103H
In short: as §1

NCI-H2347 = system: NCI-H2347
In short: as §1

NCI-H1355 = system: NCI-H1355
In short: as §1

Cc1sc2c(c1C)C(c1ccc(Cl)cc1)=N[C@@H](CC(=O)OC(C)(C)C)c1nnc(C)n1-2 [JQ1] + N=C(N)NC(=N)NCCc1ccccc1 [Phenformin] (partner 250 µM) was tested. Which relative viability (NCI-H520; first compound 0.04 µM) did it give?
The relative viability was 0.475.

And the relative viability (NCI-H520; first compound 0.1265 µM)?
The relative viability was 0.614.

What about the relative viability (NCI-H520; first compound 0.4 µM) of the same compound?
The relative viability was 0.544.

And the relative viability (NCI-H520; first compound 1.265 µM)?
Its relative viability is 0.275.

What about the relative viability (NCI-H520; first compound 4 µM) of the same compound?
Its relative viability is 0.321.

What about the relative viability (NCI-H661; first compound 0.04 µM) of the same compound?
Its relative viability is 0.264.

What about the relative viability (NCI-H661; first compound 0.1265 µM) of the same compound?
Its relative viability is 0.315.

And the relative viability (NCI-H661; first compound 0.4 µM)?
Its relative viability is 0.286.

And the relative viability (NCI-H661; first compound 1.265 µM)?
The relative viability was 0.302.

And the relative viability (NCI-H661; first compound 4 µM)?
Its relative viability is 0.282.

What about the relative viability (NCI-H1651; first compound 0.04 µM) of the same compound?
The relative viability was 0.265.

What about the relative viability (NCI-H1651; first compound 0.1265 µM) of the same compound?
The relative viability was 0.249.

And the relative viability (NCI-H1651; first compound 0.4 µM)?
The relative viability was 0.305.

What about the relative viability (NCI-H1651; first compound 1.265 µM) of the same compound?
Its relative viability is 0.245.

What about the relative viability (NCI-H1651; first compound 4 µM) of the same compound?
The relative viability was 0.241.

And the relative viability (NCI-H1792; first compound 0.04 µM)?
The relative viability was 0.323.

And the relative viability (NCI-H1792; first compound 0.1265 µM)?
Its relative viability is 0.19.

And the relative viability (NCI-H1792; first compound 0.4 µM)?
Its relative viability is 0.232.

And the relative viability (NCI-H1792; first compound 1.265 µM)?
The relative viability was 0.106.

What about the relative viability (NCI-H1792; first compound 4 µM) of the same compound?
The relative viability was 0.0948.

And the relative viability (NCI-H441; first compound 0.04 µM)?
The relative viability was 0.728.

And the relative viability (NCI-H441; first compound 0.1265 µM)?
Its relative viability is 0.778.

And the relative viability (NCI-H441; first compound 0.4 µM)?
The relative viability was 0.681.

What about the relative viability (NCI-H441; first compound 1.265 µM) of the same compound?
Its relative viability is 0.388.

What about the relative viability (NCI-H441; first compound 4 µM) of the same compound?
The relative viability was 0.289.

And the relative viability (SW 900; first compound 0.04 µM)?
Its relative viability is 0.462.

And the relative viability (SW 900; first compound 0.1265 µM)?
The relative viability was 0.519.

What about the relative viability (SW 900; first compound 0.4 µM) of the same compound?
The relative viability was 0.285.

And the relative viability (SW 900; first compound 1.265 µM)?
Its relative viability is 0.187.

And the relative viability (SW 900; first compound 4 µM)?
The relative viability was 0.139.

What about the relative viability (NCI-H3122; first compound 0.04 µM) of the same compound?
Its relative viability is 0.362.

And the relative viability (NCI-H3122; first compound 0.4 µM)?
The relative viability was 0.377.

And the relative viability (NCI-H3122; first compound 1.265 µM)?
The relative viability was 0.313.

What about the relative viability (NCI-H3122; first compound 4 µM) of the same compound?
Its relative viability is 0.264.

What about the relative viability (SK-MES-1; first compound 0.04 µM) of the same compound?
The relative viability was 0.672.

And the relative viability (SK-MES-1; first compound 0.1265 µM)?
Its relative viability is 0.496.

What about the relative viability (SK-MES-1; first compound 0.4 µM) of the same compound?
Its relative viability is 0.428.

And the relative viability (SK-MES-1; first compound 1.265 µM)?
The relative viability was 0.307.

What about the relative viability (SK-MES-1; first compound 4 µM) of the same compound?
Its relative viability is 0.199.

What about the relative viability (LCLC-103H; first compound 0.04 µM) of the same compound?
The relative viability was 0.345.

What about the relative viability (LCLC-103H; first compound 0.1265 µM) of the same compound?
The relative viability was 0.308.

And the relative viability (LCLC-103H; first compound 0.4 µM)?
The relative viability was 0.371.

What about the relative viability (LCLC-103H; first compound 1.265 µM) of the same compound?
The relative viability was 0.268.

What about the relative viability (LCLC-103H; first compound 4 µM) of the same compound?
Its relative viability is 0.28.

And the relative viability (NCI-H2347; first compound 0.04 µM)?
Its relative viability is 0.332.

What about the relative viability (NCI-H2347; first compound 0.1265 µM) of the same compound?
Its relative viability is 0.504.

What about the relative viability (NCI-H2347; first compound 0.4 µM) of the same compound?
Its relative viability is 0.323.

What about the relative viability (NCI-H2347; first compound 1.265 µM) of the same compound?
The relative viability was 0.358.

What about the relative viability (NCI-H2347; first compound 4 µM) of the same compound?
The relative viability was 0.233.

And the relative viability (NCI-H1355; first compound 0.04 µM)?
The relative viability was 0.45.

What about the relative viability (NCI-H1355; first compound 0.1265 µM) of the same compound?
Its relative viability is 0.473.

What about the relative viability (NCI-H1355; first compound 0.4 µM) of the same compound?
Its relative viability is 0.433.

And the relative viability (NCI-H1355; first compound 1.265 µM)?
Its relative viability is 0.388.

What about the relative viability (NCI-H1355; first compound 4 µM) of the same compound?
The relative viability was 0.326.

Reference: the supplement of paper PMC10307832
